# Test results as given in patent publication US6710090B2, “Inhibitory or blocking agents of molecular generating and/or inducing functions” (priority 1994, dated 2004).
# Experiments:
# [1] = system: E79 double-chained DNA phage; assay: Effect on bacteriophage, numbers of plaques; assay type: cell-based, bacteriophage (indication bacteria pseudomonas aeruginosa)
# Description: Yoshixol (4 μl) were added in 1 ml of phage solution (E79 double-chained DNA phage) which was adjusted on about 10^7 per 1 ml, and were mixed well. Then, 10 μl of the mixture sampled after 5, 10, 20, 30 minutes was diluted by quickly adding in 10 ml of medium, so that 100 μl of the phage-diluted solution put into the test tube as the upper plate with the warmed gelatin agar, which was mixed with 100 μl of the indication bacterial solution (pseudomonas aeruginosa) cultured for one night. Then, the adjusted solution of the phages in the test tube was dropped on the agar plate and, homogeneous surface of the upper agar plate was produced by smoothly rotating the plate on the table. After resting it on the table about 10 minute when multilayer gelatin agar sufficiently became solid, they were stocked into the incubator at 37° C. After one night incubation, numbers of plaques were counted. As a result, the numbers of plaques in the 5 min-treated phage solution, in 10 min-treated phage solution and in the […] phage solution with Yoshixol decreased to 33%, 15% and 6% of the plaques formation in the non-treated phage solution, respectively.
# [2] = system: primer (SEQ ID NO: 2) and snake DNA; assay: PCR with primer or DNA template treated with Yoshixol; assay type: biochemical
# Description: (§1) Effect of Yoshixol on PCR was investigated by DNA template which was extracted from snake (blue-green snake, captured at Matsumoto city, Nagano). The new synthesized dimer of (SEQ ID NO: 2) (5′>CTTCGGGCTTCGGG<3′) with 7 base-pair alignment (CTTCGGG) above-mentioned was used as a primer. PCR reaction was done by use of DNA thermal cycler (PJ-2000) made in PERKIN ELMER CETUS company. The following six combinations were prepared for the test samples. Those are two kinds of samples which consist of 5 μl of primer (100 pico mole/μl) with 5 μl of Yoshixol (P+) and without Yoshixol (P−). In addition, two kinds of samples which consist of 5 μl. of snake DNA (500 ng/μl) with 5 μl of Yoshixol (D+) and without Yoshixol (D−). And, additional two kinds of samples which consist of 1 μl of polymerase enzymes (Recombinant Taq DNA Polymerase, No. R001A, TaKaRa Shuzo Co., Otsu city: 5 unit/pd) with 1 μl of Yoshixol (Pm+) and without Yoshixol (Pm−). After each sample was placed for 10 minutes at room temperature, each sample was diluted in distilled water. And, it is adjusted in a primer solution of 10 picomole/μl, DNA solution of 50 ng/μl and a polymerase enzymes solution of 0.5 unit/μl. Then, the following combinations were prepared. […] In each combination, amount of cDNA synthesis was amplified by a PCR method and was measured. […]
# thrombin [3] = molecular target: T1, thrombin (Homo sapiens, UniProt P00734); assay: Composition of amino acids in thrombin; assay type: biochemical; set-up: 1 ml of human thrombin before and after treatment with Yoshixol; conditions: did not exist before treatment; Yoshixol 4 μl
# Description: Changes in composition of amino acids were analyzed by use of 1 ml of human blood serum, 1 ml of human fibrinogen (concentration of 160 mg/dl), 1 ml of human thrombin before and after treatment with Yoshixol (4 μl). The total amino acids in the human blood serum which was treated with Yoshixol decreased by 41%. And, ratio of each composition was altered after the treatment so that as an example the concentration of phosphoserine increased about 20 times which level was from 7.2 picomole to 164.8 picomole.
# [4] = system: anti-A blood serum, anti-B blood serum; assay: Function of serum antibodies for ABO blood types; assay type: biochemical, human
# Description: It is also known that antibody has a structure of Y shape which consists of 2 pairs of light chain and heavy chain in generally, and that the fundamental structure is maintained by S—S bond. Serum antibody reaction of ABO blood types is important historically to understand various kinds of antigen-antibody reactions. In this invention, effect of Yoshixol (4 μl) on the standard judgment of ABO blood types was investigated by using human blood of A type, B type and O type (400 μl, respectively).
# thrombin [5] = molecular target: T1, thrombin; assay: Function and configuration of thrombin, electrophoresis; assay type: biochemical; set-up: thrombin (Behlinger Manheim-Yamanouchi Co.) was investigated by electrophoresis; purchased Behlinger Manheim-Yamanouchi Co; conditions: after treatment with Yoshixol 4 μl
# Description: Each physiological effect of trypsin (Wakou Jyunyaku Ltd.) and thrombin (Behlinger Manheim-Yamanouchi Co.) was investigated by electrophoresis. When trypsin was added to bovine albumin (Sigma Co. Saint Louis, Mo., USA) or myoglobin (Sigma Co. Saint Louis, Mo., USA), each primary structure of proteins which consist of albumin was altered by proteolytic action of trypsin. In addition, when thrombin was added to human fibrinogen (Behlinger Manheim-Yamanouchi Co.), a primary structure of proteins which consists of fibrinogen was not found.
# [6] = molecular target: T2, Recombinant Taq DNA Polymerase (Thermus aquaticus, UniProt P19821); assay: PCR with polymerase enzymes treated with Yoshixol; assay type: biochemical
# T2 construct: purchased TaKaRa Shuzo Co., Otsu city R001A
# Description: as §1
smiles,measurement,setting,value
"C=C1CC(C)(C)C=CC1=O [Yoshixol, 4,4-dimethyl-6-methylene-2-cyclohexen-1-one]","numbers of plaques, of the plaques formation in the non-treated phage solution","[1]; Yoshixol 4 μl in 1 ml phage solution (about 10^7 per ml), 5 min-treated",33%
same,"numbers of plaques, of the plaques formation in the non-treated phage solution","[1]; Yoshixol 4 μl in 1 ml phage solution, 10 min-treated",15%
same,"numbers of plaques, of the plaques formation in the non-treated phage solution","[1]; Yoshixol 4 μl in 1 ml phage solution, 15 min-treated",6%
same,plaques formation,"[1]; Yoshixol 4 μl in 1 ml phage solution, treated over 20 min",plaques formation did not find
same,"PCR bounds versus P−, D−, Pm−, group P+, D−, Pm−",[2]; only primer processed by Yoshixol (5 μl with 5 μl),did not differ
same,"PCR bounds versus P−, D−, Pm−, group P−, D+, Pm−",[2]; only snake DNA processed by Yoshixol (5 μl with 5 μl),did not differ
same,"glutamic acid, taurine, methionine and aminoisobutylic acid in thrombin sample",thrombin [3],produced newly
same,primary structure of antiserums for ABO blood types (electrophoretic analysis),[4]; after treatment of Yoshixol,any change in primary structure of antiserums did not find
same,blood aggregation in judgment of ABO blood type,"[4]; antiserum treated with Yoshixol 4 μl, human blood A, B, O type 400 μl",any aggregation did not occur
same,physiological function of thrombin to fibrinogen,thrombin [5],did not occur
same,primary structure of thrombin (electrophoresis),thrombin [5],did not show any electrophoretic changes
same,"PCR bounds, group P−, D−, Pm+","[6]; 1 μl polymerase with 1 μl of Yoshixol, untreated 4 bounds between 0.5 and 1.2 kb",only one bound at lowest molecular weight within 4 bounds was appeared
same,"PCR bounds, group P−, D−, Pm+A",[6]; concentration of Yoshixol for the polymerase increased to 100 times,any kind of bounds did not observe
